≈ marks a conversion by molar mass, not a printed value.
Assays:
Assay in all cases: MIC by series dilution on Iso-Sensitest agar
E. coli = type: cell-based, Escherichia coli; conditions: 37° C., about 20 hours, 10^4 colony-forming particles per spot; for MIC: Escherichia coli, 20 h
Method: (§1) The minimum inhibitory concentrations (MIC) were determined by series dilution methods on Iso-Sensitest agar (Oxoid). A series of agar plates each containing active compound concentrations decreasing by twofold dilution each time were prepared for each test substance. The agar plates were inoculated with a Multipoint inoculator (Denley). Overnight cultures of the pathogens, which were first diluted so that each inoculum spot contained about 10^4 colony-forming particles, were used for the inoculation. The inoculated agar plates were incubated at 37° C. and the germ growth was read off after about 20 hours. The MIC value (μg/ml) indicates the lowest active compound concentration at which no growth was to be detected with the naked eye.
(§2) The MIC values of some of the compounds according to the invention are shown in the following table in comparison with 7-(4-amino-1,3-dihydro-isoindol-2-yl)-1-cyclopropyl-6,8-difluoro-1,4-dihydro-4-oxo-3-quinolinecarboxylic acid (EP 343,560, Example 2).

Klebsiella sp. = type: cell-based; conditions: strain 8085, 37° C., about 20 hours, 10^4 colony-forming particles per spot; for MIC: Klebsiella
Method: as §1, §2

Providencia spp. = type: cell-based; conditions: strain 12012, 37° C., about 20 hours, 10^4 colony-forming particles per spot; for MIC: Providencia, 20 h
Method: as §1, §2

Morganella morg. = type: cell-based; conditions: strain 932, 37° C., about 20 hours, 10^4 colony-forming particles per spot; for MIC: Morganella, 20 h
Method: as §1, §2

Enterocococus faecalis = type: cell-based, Enterococcus faecalis; conditions: 37° C., about 20 hours, 10^4 colony-forming particles per spot; for MIC: Enterococcus faecalis, 20 h
Method: as §1, §2

Staphyloccus aureus = type: cell-based, Staphylococcus aureus; conditions: 37° C., about 20 hours, 10^4 colony-forming particles per spot; for MIC: Staphylococcus aureus, 20 h
Method: as §1, §2

Pseudomonas aeruginasa = type: cell-based, Pseudomonas aeruginosa; conditions: strain Walter, 37° C., about 20 hours, 10^4 colony-forming particles per spot; for MIC: Pseudomonas, 20 h
Method: as §1, §2

Row | SMILES | MIC values (E. coli; strain 455/7) | MIC values (E. coli; strain Neumann) | MIC values (Klebsiella sp.) | MIC values (Providencia spp.) | MIC values (Morganella morg.) | MIC values (Enterocococus faecalis; strain 9790) | MIC values (Enterocococus faecalis; strain 27101) | MIC values (Staphyloccus aureus; strain 133) | MIC values (Staphyloccus aureus; strain 1756) | MIC values (Pseudomonas aeruginasa) [µg/mL] | MIC (E. coli; strain 455/7) [µg/mL] | MIC (E. coli; strain Neumann) [µg/mL] | MIC (Klebsiella sp.) [µg/mL] | MIC (Providencia spp.) [µg/mL] | MIC (Morganella morg.) [µg/mL] | MIC (Enterocococus faecalis; strain 9790) [µg/mL] | MIC (Enterocococus faecalis; strain 27101) [µg/mL] | MIC (Staphyloccus aureus; strain 133) [µg/mL] | MIC (Staphyloccus aureus; strain 1756) [µg/mL] | MIC (Pseudomonas aeruginasa) [µg/mL]
1 | CNC1C=CCC2CN(c3c(F)cc4c(=O)c(C(=O)O)cn(C5CC5)c4c3Cl)CC21 (centres unmarked) [9 B] | 0,5 μg/ml | 0,02 μg/ml | 0,03 μg/ml | 0,06 μg/ml | 0,06 μg/ml | 0,02 μg/ml | 0,03 μg/ml | 0,03 μg/ml | 0,03 μg/ml | 1 (≈ 2.32 µM) | – | – | – | – | – | – | – | – | – | –
2 | CNC1C=CCC2CN(c3nc4c(cc3F)c(=O)c(C(=O)O)cn4-c3ccc(F)cc3F)CC21 (centres unmarked) [11 B] | – | – | – | – | – | – | – | – | – | – | 16 (≈ 34 µM) | 0.25 (≈ 0.531 µM) | 0.5 (≈ 1.06 µM) | 0.5 (≈ 1.06 µM) | 0.5 (≈ 1.06 µM) | 0.25 (≈ 0.531 µM) | 0.25 (≈ 0.531 µM) | 0.06 (≈ 0.128 µM) | 0.06 (≈ 0.128 µM) | 8 (≈ 17 µM)
3 | CNC1C=CCC2CN(c3c(F)cc4c(=O)c(C(=O)O)cn(C5CC5)c4c3F)CC21 (centres unmarked) [Example 1, 1-cyclopropyl-6,8-difluoro-1,4-dihydro-7-(4-methylamino-1,3,3a,4,7,7a-hexahydro-isoindol-2-yl)-4-oxo-3-quinolinecarboxylic acid] | – | – | – | – | – | – | – | – | – | – | 0.5 (≈ 1.2 µM) | 0.02 (≈ 0.0481 µM) | 0.06 (≈ 0.144 µM) | 0.06 (≈ 0.144 µM) | 0.06 (≈ 0.144 µM) | 0.03 (≈ 0.0722 µM) | 0.03 (≈ 0.0722 µM) | 0.02 (≈ 0.0481 µM) | 0.02 (≈ 0.0481 µM) | 1 (≈ 2.41 µM)
4 | CNC1C=CCC2CN(c3cc4c(cc3F)c(=O)c(C(=O)O)cn4C3CC3)CC21 (centres unmarked) [Example 2] | – | – | – | – | – | – | – | – | – | – | 2 (≈ 5.03 µM) | 0.03 (≈ 0.0755 µM) | – | 0.13 (≈ 0.327 µM) | – | 0.06 (≈ 0.151 µM) | 0.06 (≈ 0.151 µM) | 0.02 (≈ 0.0503 µM) | 0.02 (≈ 0.0503 µM) | 2 (≈ 5.03 µM)
5 | CNC1C=CCC2CN(c3c(F)cc4c(=O)c(C(=O)O)cn(C5CC5)c4c3Cl)CC21 (centres unmarked) [Example 3, 8-chloro-1-cyclopropyl-6-fluoro-1,4-dihydro-7-(4-methylamino-1,3,3a,4,7,7a-hexahydro-isoindol-2-yl)-4-oxo-3-quinolinecarboxylic acid] | – | – | – | – | – | – | – | – | – | – | 0.25 (≈ 0.579 µM) | 0.02 (≈ 0.0463 µM) | 0.03 (≈ 0.0695 µM) | 0.03 (≈ 0.0695 µM) | 0.03 (≈ 0.0695 µM) | 0.02 (≈ 0.0463 µM) | 0.02 (≈ 0.0463 µM) | 0.02 (≈ 0.0463 µM) | 0.02 (≈ 0.0463 µM) | 0.5 (≈ 1.16 µM)
6 | CNC1C=CCC2CN(c3cc4c(c(C)c3F)c(=O)c(C(=O)O)cn4C3CC3)CC21 (centres unmarked) [Example 4] | – | – | – | – | – | – | – | – | – | – | 16 (≈ 38.9 µM) | 0.13 (≈ 0.316 µM) | 0.25 (≈ 0.608 µM) | 0.25 (≈ 0.608 µM) | 0.5 (≈ 1.22 µM) | 0.13 (≈ 0.316 µM) | 0.13 (≈ 0.316 µM) | 0.03 (≈ 0.0729 µM) | 0.03 (≈ 0.0729 µM) | 16 (≈ 38.9 µM)
7 | CNC1C=CC(C)C2CN(c3cc4c(cc3F)c(=O)c(C(=O)O)cn4C3CC3)CC12 (centres unmarked) [Example 5] | – | – | – | – | – | – | – | – | – | – | 2 (≈ 4.86 µM) | 0.06 (≈ 0.146 µM) | 0.06 (≈ 0.146 µM) | 0.13 (≈ 0.316 µM) | 0.06 (≈ 0.146 µM) | 0.03 (≈ 0.0729 µM) | 0.03 (≈ 0.0729 µM) | 0.02 (≈ 0.0486 µM) | 0.02 (≈ 0.0486 µM) | 2 (≈ 4.86 µM)
8 | CNC1C=CC(C)C2CN(c3c(F)cc4c(=O)c(C(=O)O)cn(C5CC5)c4c3F)CC12 (centres unmarked) [Example 6] | – | – | – | – | – | – | – | – | – | – | 1 (≈ 2.33 µM) | 0.03 (≈ 0.0699 µM) | 0.06 (≈ 0.14 µM) | 0.13 (≈ 0.303 µM) | 0.06 (≈ 0.14 µM) | 0.06 (≈ 0.14 µM) | 0.06 (≈ 0.14 µM) | 0.02 (≈ 0.0466 µM) | 0.02 (≈ 0.0466 µM) | 2 (≈ 4.66 µM)
9 | CNC1C=CCC2CN(c3nc4c(cc3F)c(=O)c(C(=O)O)cn4C3CC3)CC21.Cl (centres unmarked) [Example 10, 1-cyclopropyl-6-fluoro-1,4-dihydro-7-(4-methylamino-1,3,3a,4,7,7a-hexahydroisoindol-2-yl)-4-oxo-1,8-naphthyridine-3-carboxylic acid hydrochloride] | – | – | – | – | – | – | – | – | – | – | 8 | 0.06 | 0.13 | 0.25 | 0.25 | 0.25 | 0.25 | 0.06 | 0.06 | 4
10 | Nc1cccc2c1CN(c1c(F)cc3c(=O)c(C(=O)O)cn(C4CC4)c3c1F)C2 [Ref, 7-(4-amino-1,3-dihydro-isoindol-2-yl)-1-cyclopropyl-6,8-difluoro-1,4-dihydro-4-oxo-3-quinolinecarboxylic acid, reference compound] | – | – | – | – | – | – | – | – | – | – | 128 (≈ 322 µM) | 0.5 (≈ 1.26 µM) | 4 (≈ 10.1 µM) | 1 (≈ 2.52 µM) | 1 (≈ 2.52 µM) | 1 (≈ 2.52 µM) | 0.5 (≈ 1.26 µM) | 0.03 (≈ 0.0755 µM) | 0.03 (≈ 0.0755 µM) | 128 (≈ 322 µM)
